According to ChEMBL document CHEMBL5241097, “Synthetically-tailored and nature-derived dual COX-2/5-LOX inhibitors: Structural aspects and SAR” (Eur J Med Chem, 2021):
Converted amounts (≈) assume the structure as drawn.

Key:
[1] = target: T1, Prostaglandin G/H synthase 2 (Homo sapiens, UniProt P35354); test: Inhibition of COX-2 (unknown origin) by colorimetric method
T1 sequence (P35354 whole entry): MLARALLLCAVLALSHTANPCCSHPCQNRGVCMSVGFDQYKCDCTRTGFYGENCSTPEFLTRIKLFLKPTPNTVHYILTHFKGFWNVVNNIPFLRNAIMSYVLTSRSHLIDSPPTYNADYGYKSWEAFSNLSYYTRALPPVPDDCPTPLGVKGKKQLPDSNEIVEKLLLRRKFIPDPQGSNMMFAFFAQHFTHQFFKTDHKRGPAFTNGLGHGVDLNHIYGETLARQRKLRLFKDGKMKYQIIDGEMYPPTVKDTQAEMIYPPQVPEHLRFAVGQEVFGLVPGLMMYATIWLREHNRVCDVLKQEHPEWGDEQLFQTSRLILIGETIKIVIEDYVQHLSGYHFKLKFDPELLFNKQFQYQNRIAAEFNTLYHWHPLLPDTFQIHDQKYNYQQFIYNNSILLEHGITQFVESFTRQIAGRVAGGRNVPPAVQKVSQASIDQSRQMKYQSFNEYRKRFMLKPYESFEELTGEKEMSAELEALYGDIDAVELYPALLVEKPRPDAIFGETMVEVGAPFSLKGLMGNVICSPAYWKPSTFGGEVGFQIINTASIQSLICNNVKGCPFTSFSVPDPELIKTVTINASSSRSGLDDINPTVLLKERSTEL

[2] = target: T2, Polyunsaturated fatty acid 5-lipoxygenase (Homo sapiens, UniProt P09917); test: Inhibition of human 5-LOX by colorimetric assay
T2 sequence (P09917 whole entry): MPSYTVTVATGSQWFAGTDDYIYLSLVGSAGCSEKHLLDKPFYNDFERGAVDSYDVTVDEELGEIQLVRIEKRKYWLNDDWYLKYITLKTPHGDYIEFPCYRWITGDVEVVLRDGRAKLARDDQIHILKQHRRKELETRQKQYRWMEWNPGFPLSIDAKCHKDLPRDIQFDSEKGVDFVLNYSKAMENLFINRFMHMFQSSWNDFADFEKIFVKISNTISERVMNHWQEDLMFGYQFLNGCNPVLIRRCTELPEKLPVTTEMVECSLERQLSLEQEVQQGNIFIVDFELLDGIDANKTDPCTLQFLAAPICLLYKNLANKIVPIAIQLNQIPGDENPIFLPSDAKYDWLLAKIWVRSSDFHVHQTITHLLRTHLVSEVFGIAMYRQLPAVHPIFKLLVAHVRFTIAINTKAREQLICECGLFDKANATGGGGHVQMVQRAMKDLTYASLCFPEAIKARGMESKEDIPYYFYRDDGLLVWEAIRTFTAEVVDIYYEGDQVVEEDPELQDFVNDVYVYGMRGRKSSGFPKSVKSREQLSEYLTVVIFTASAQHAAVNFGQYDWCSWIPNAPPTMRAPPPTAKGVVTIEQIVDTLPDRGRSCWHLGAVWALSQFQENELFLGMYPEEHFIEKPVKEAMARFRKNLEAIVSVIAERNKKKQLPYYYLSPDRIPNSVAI

[3] = system: MCF7; test: Anticancer activity against human MCF7 cells assessed as cell growth inhibition incubated for 3 hrs by Sulforhodamine B assay; format: functional, cell-based; settings: MCF7, 3 h
[4] = target: Prostaglandin G/H synthase 1 (Homo sapiens, UniProt P23219); test: Inhibition of COX-1 (unknown origin) by enzyme immune assay
[5] = target: T1, Prostaglandin G/H synthase 2; test: Inhibition of COX-2 (unknown origin) by enzyme immune assay
[6] = system: DLD-1; test: Anticancer activity against human DLD-1 cells assessed as cell growth inhibition incubated for 3 hrs by Sulforhodamine B assay; format: functional, cell-based; settings: DLD-1, 3 h

Prostaglandin G/H synthase 1, sequence (P23219 whole entry): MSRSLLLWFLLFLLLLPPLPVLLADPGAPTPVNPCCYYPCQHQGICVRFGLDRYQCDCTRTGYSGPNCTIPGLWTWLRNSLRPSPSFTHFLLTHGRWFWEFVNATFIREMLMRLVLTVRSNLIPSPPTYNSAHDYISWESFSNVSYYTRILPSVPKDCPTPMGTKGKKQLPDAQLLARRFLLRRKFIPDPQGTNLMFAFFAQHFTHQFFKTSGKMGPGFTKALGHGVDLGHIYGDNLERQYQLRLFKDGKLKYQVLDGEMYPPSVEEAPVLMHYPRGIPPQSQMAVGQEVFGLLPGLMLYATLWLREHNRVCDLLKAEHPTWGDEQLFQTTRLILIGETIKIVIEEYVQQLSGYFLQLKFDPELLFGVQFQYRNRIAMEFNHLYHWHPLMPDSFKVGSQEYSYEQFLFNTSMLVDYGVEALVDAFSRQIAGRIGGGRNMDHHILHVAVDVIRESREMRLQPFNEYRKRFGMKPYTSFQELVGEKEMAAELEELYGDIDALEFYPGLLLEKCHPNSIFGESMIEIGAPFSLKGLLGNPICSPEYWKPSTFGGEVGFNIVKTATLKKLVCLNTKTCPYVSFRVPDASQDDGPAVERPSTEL

Compound	IC50 [1] [µM]	IC50 [2] [µM]	IC50 [3] [µg/mL]	IC50 [4] [µM]	IC50 [5] [µM]	IC50 [6] [µg/mL]
O=C1/C(=C/c2ccc(Cl)cc2)N=C(c2ccccc2)N1c1ccc(-c2nc3ccccc3o2)cc1	0.25	0.02	–	–	–	–
C=C1CC[C@@H]2[C@H](CC2(C)C)C(=C)CC[C@H]1O	–	–	82 (≈ 372 µM)	395	399	52.5 (≈ 238 µM)
